Where two headings read alike, the source gives them in different places.
Tests used:
[1] = target: T1, CDK9 (Homo sapiens, UniProt P50750); design: purchased BPS Biosciences (San Diego, CA); conditions: compound 2 of Figure 1; ref [40]; cited from earlier work
[2] = tested on: three cancer cell lines; conditions: average of three cancer cell lines, ref [40], cited from earlier work
[3] = tested on: CDK5; conditions: new-generation CDK9 inhibitors; ref [21]; cited from earlier work
[4] = tested on: CDK7; conditions: new-generation CDK9 inhibitors; ref [21]; cited from earlier work
[5] = tested on: CDK2; conditions: new-generation CDK9 inhibitors; ref [21] (Atuveciclib), [32] (BAY-1251152); cited from earlier work
[6] = tested on: six breast cancer cell lines; conditions: read-out: Cytotoxicity IC50; average of six breast cancer cell lines; ref [38],[39]; cited from earlier work
[7] = tested on: human Coronavirus (HCoV-229E); test: 229E inhibitory assay (cytopathic inhibition effect); format: cell-based, human Coronavirus 229E; conditions: for IC50: read-out: IC50 229E inhibitory effect
Description: The antiviral effect of the compounds was examined in a human Coronavirus (HCoV-229E) inhibitory assay. The standard ribavirin (a well-established antiviral agent) was used as a positive control in this experiment.
The cytopathic inhibition effect was used to assess the antiviral and cytotoxicity of the compounds using a method described by Choi et al. (2009). Coronavirus 229E cells were used in this assay. The antiviral activity of the tested compounds was measured as a percentage using a method described by Pauwels et al.’s (1988) research. GraphPad Prism 5.0 software was used to analyze the results. Ribavirin was used as a positive standard in this assay, and DMSO was used as a negative standard.

[8] = tested on: MCF7, HCT116, and K652 cancer cells; test: MTT cytotoxicity assay, average of the three cell lines; format: cell-based
Description: (§1) The cytotoxicity effect of the new compounds was assessed in an MTT assay against chronic myelogenous leukemia (K652), colorectal (HCT116), and breast (MCF7) cancer cell lines. […] The data is presented in Table 4 as IC50 values (in µM).
(§2) Cells were obtained from American Type Culture Collection. The cell culture DMEM was obtained from Life Technologies and Invitrogen and supplied with 10% FBS from Hyclone, 1% penicillin-streptomycin, and 10 µg/mL insulin from Sigma-Aldrich.
(§3) The MTT assay was used to monitor the in vitro cytotoxicity of our compounds. […] Then, the cells were incubated with 10% v/v reconstituted MTT at 37 °C for 3 h.

[9] = tested on: K652 cancer cells; test: MTT cytotoxicity assay, K652; format: cell-based; conditions: K652, 48 h, read-out: IC50 K652
Description: as §1, §2, §3

[10] = tested on: HCT116 cancer cells; test: MTT cytotoxicity assay, HCT116; format: cell-based; conditions: Homo sapiens, HCT-116, 48 h, means (SD) of three trials
Description: as §1, §2, §3

[11] = tested on: MCF7 cancer cells; test: MTT cytotoxicity assay, MCF7; format: cell-based; conditions: Homo sapiens, 48 h, means (SD) of three trials
Description: as §1, §2
The MTT assay was used to monitor the in vitro cytotoxicity of our compounds. […] Then, the cells were incubated with 10% v/v reconstituted MTT at 37 °C for 3 h. The multiwell plates were then read using Wallac Victor2 1420 multilabel counter, and the absorbance was measured at a wavelength of 450 (ex) and 590 nm (em).

[12] = Cytotoxicity on target cells in the antiviral assay; conditions: target cells of the HCoV-229E antiviral assay
[13] = tested on: FHC normal cells; test: MTT assay against FHC normal cells; format: cell-based; conditions: for IC50: read-out: FHC IC50
Description: as §3

[14] = target: T1, CDK9; test: In vitro CDK9 kinase assay (BPS Biosciences kit)
Description: The in vitro kinase activity was measured using a CDK9 assay kit obtained from BPS Biosciences (San Diego, CA). The inhibitory effect of the tested compounds was assessed following the manufacturer’s instructions as indicated in the kit. GraphPad Prism 5.0 software was used to analyze the results.

[15] = HCoV-229E, cytopathic effect inhibition
[16] = MTT assay, normal noncancerous cells

T1 sequence (P50750 whole entry): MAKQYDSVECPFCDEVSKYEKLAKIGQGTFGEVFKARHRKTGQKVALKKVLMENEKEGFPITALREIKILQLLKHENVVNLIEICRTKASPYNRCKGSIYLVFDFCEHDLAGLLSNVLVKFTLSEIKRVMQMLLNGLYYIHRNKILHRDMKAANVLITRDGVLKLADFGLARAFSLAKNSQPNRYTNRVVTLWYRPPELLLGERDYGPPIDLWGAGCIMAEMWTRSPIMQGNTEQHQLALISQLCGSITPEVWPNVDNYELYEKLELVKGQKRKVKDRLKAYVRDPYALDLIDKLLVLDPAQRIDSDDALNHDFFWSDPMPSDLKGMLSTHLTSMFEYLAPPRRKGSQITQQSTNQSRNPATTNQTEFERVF
T1 sequence (O60563 whole entry, further chain): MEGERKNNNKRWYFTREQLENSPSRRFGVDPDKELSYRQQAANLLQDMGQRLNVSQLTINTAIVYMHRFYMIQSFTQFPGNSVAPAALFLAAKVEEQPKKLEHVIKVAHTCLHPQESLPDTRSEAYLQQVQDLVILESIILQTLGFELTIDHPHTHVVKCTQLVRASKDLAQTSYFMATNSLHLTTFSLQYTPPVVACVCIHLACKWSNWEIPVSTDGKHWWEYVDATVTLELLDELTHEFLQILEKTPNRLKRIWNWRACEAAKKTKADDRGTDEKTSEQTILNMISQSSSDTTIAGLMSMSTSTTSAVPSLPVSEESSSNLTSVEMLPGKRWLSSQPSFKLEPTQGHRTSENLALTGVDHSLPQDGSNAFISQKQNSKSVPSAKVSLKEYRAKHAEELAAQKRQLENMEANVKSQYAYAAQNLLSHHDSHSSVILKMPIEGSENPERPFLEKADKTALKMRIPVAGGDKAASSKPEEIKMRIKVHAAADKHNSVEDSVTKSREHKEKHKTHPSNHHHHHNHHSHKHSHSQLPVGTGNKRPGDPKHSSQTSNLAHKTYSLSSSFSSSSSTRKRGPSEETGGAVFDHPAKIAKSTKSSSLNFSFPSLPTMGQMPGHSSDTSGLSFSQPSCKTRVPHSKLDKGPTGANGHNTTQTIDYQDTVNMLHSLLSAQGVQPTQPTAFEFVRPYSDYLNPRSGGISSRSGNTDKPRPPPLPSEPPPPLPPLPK

Row | Molecule | IC50 [8] [µM] | IC50 [9] [µM] | IC50 [10] [µM] | IC50 [11] [µM] | IC50 [14] [µM] | other results
1 | 2-phenylimidazopyrazin-3-amine [Compound 2] |  |  |  |  |  | CDK9 IC50 [1]: submicromolar; IC50 [1]: 0.166 µM; Cytotoxicity IC50 [2]: single-digit; IC50 ([2]; read-out: Cytotoxicity IC50): 6.66 µM
2 | COc1cc(F)ccc1-c1ncnc(Nc2cccc(C[S@](C)(=N)=O)c2)n1 [Atuveciclib] |  |  |  |  |  | IC50 [3]: 1.6 µM; IC50 [4]: > 10 µM; IC50 [5]: 1 µM
3 | COc1cc(F)ccc1-c1cc(Nc2cc(CS(C)(=N)=O)ccn2)ncc1F (stereo not shown) [BAY-1251152] |  |  |  |  |  | IC50 [5]: 2.92 µM
4 | Oc1ccc(-c2nc3cnccn3c2NCCc2ccccc2)cc1O [Compound 1] |  |  |  |  |  | IC50 [6]: 34.8 µM
5 | CC(C)(C)Nc1c(-c2ccoc2)nc2cnccn12 [Compound 1a, N-(Tert-butyl)-2-(furan-3-yl) imidazo[1,2-a] pyrazin-3-amine] | 12.6 | 13.4 ± 0.19 | 21.6 ± 0.29 | 2.85 ± 0.03 | 0.19 ± 0.003 | SI selectivity index (CC50/IC50) ([7]; HCoV-229E): 1.25; IC50 [7, 15]: 1060 µM; CC50 [12]: 1320 µM; SI (Selectivity Index) HCT116 ([13]; FHC versus HCT116): 2.7; SI (Selectivity Index) K652 ([13]; FHC versus K652): 4.3; SI (Selectivity Index) MCF7 ([13]; FHC versus MCF7): 20.5; IC50 [13, 16]: 58.6 ± 0.8 µM
6 | c1cn2c(NC3CCCCC3)c(-c3ccoc3)nc2cn1 [Compound 1b, N-Cyclohexyl-2-(furan-3-yl) imidazo[1,2-a] pyrazin-3-amine] | 144 | 168 ± 5.99 | 164 ± 2.1 | 99.2 ± 3.08 | 1.78 ± 0.029 | 
7 | c1ccc(CNc2c(-c3ccoc3)nc3cnccn23)cc1 [Compound 1c, N-Benzyl-2-(furan-3-yl) imidazo[1,2-a]pyrazin-3-amine] | 19.5 | 24.8 ± 0.61 | 16.4 ± 0.69 | 17.4 ± 0.34 | 0.46 ± 0.008 | IC50 [7]: 516 µM; CC50 [12]: 653 µM; IC50 [13]: 61.7 ± 0.96 µM
8 | COc1ccc(Nc2c(-c3ccoc3)nc3cnccn23)cc1 [Compound 1d, 2-(Furan-3-yl)-N-(4-methoxyphenyl) imidazo[1,2-a] pyrazin-3-amine] | 11.6 | 11.8 ± 0.19 | 10.7 ± 0.16 | 12.3 ± 0.17 | 0.18 ± 0.003 | SI selectivity index (CC50/IC50) ([7]; HCoV-229E): 1.27; IC50 [7, 15]: 405 µM; CC50 [12]: 846 µM; IC50 [13, 16]: 187 ± 2.92 µM
9 | CC(C)(C)Nc1c(-c2ccc(O)cc2O)nc2cnccn12 [Compound 2a, 4-(3-(Tert-butylamino)imidazo[1,2-a]pyrazin-2-yl)benzene-1,3-diol] | 85.2 | 71.05 ± 0.39 | 136.4 ± 0.25 | 48.26 ± 0.24 | 0.45 ± 0.008 | 
10 | Oc1ccc(-c2nc3cnccn3c2NC2CCCCC2)c(O)c1 [Compound 2b, 4-(3-(Cyclohexylamino)imidazo[1,2-a]pyrazin-2-yl)benzene-1,3-diol] | 30.8 | 38.8 ± 1.16 | 7.61 ± 2.12 | 45.9 ± 0.67 | 0.3 ± 0.006 | 
11 | Oc1ccc(-c2nc3cnccn3c2NCc2ccccc2)c(O)c1 [Compound 2c, 4-(3-(Benzylamino)imidazo[1,2-a]pyrazin-2-yl)benzene-1,3-diol] | 56.8 | 50.2 ± 0.69 | 56.56 ± 0.13 | 63.5 ± 0.7 | 0.65 ± 0.011 | 

From article PMC10383573, “New Imadazopyrazines with CDK9 Inhibitory Activity as Anticancer and Antiviral: Synthesis, In Silico, and In Vitro Evaluation Approaches” (Pharmaceuticals, 2023)
